Test results taken from patent US20230399312A1, “SUBSTITUTED PYRIMIDINES AND METHODS OF USE” (THERAVANCE BIOPHARMA R&D IP, LLC, priority 2020, published 2023).
pKi: −log10 of the molar value.

Tests used:
[1] = biological target: T1, recombinant human ALK5 (TGF-βR1) protein (Homo sapiens, UniProt P36897); test: Biochemical ALK5 (TGF-βR1) assay to measure pKi (LANCE Ultra ULight kinase assay); conditions: apparent pKi, converted from pIC50 by Cheng-Prusoff
T1 construct: purchased Life Technologies PR9075A
T1 sequence (P36897 34-503): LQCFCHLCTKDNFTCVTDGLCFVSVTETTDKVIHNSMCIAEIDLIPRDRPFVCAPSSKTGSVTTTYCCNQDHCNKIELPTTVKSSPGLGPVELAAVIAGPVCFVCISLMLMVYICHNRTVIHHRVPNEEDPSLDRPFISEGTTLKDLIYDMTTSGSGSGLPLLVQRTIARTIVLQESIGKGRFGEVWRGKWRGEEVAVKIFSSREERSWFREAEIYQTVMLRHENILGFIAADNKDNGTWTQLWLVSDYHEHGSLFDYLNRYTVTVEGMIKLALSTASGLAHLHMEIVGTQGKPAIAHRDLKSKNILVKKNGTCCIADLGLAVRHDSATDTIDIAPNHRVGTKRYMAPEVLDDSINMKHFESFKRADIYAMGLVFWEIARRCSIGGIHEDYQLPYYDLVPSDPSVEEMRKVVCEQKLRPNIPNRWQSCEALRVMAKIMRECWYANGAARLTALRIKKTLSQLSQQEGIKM
Outline: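 Read-out was LANCE Ultra TR-FRET with a europium anti-phospho-Topo IIα Thr1342 antibody after EDTA quench. Kinase reaction ran 60 min at 37 °C with ATP added from a 125 μM 5× stock, after 60 min compound–enzyme equilibration at room temperature. Values are pKi from Cheng-Prusoff conversion of fitted pIC50.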

[2] = test system: TGF-β-stimulated SMAD3 phosphorylation in BEAS-2B cells; test: Cellular ALK5 potency assay, inhibition of TGF-β stimulated pSMAD3 formation in BEAS-2B cells; type: cell-based; conditions: Homo sapiens, pSMAD3, TGF-β 10 ng/mL, read-out: BEAS2B pIC50 (converted)
Outline: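 Read-out is AlphaLISA detection of phospho-SMAD3 in lysates of BEAS-2B human lung epithelial cells. Cells are exposed to compound for 1 hour, then to 10 ng/mL TGF-β (final) for 30 minutes. Values are pIC50 from concentration–response curves.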

pKi [1] | Compound | IC50 [2]
9.50 to 10.40 | Cc1cccc(-c2nccc(Nc3ccnc(Nc4ccc(CN5CCCC(C(=O)OC6CNC6)C5)cc4)n3)n2)n1 (stereo not shown) [Compound 138, azetidin-3-yl 1-[[4-[[4-[[2-(6-methyl-2-pyridyl)pyrimidin-4-yl]amino]pyrimidin-2-yl]amino]phenyl]methyl] piperidine-3-carboxylate] | 25.1 to 158 nM
8.50 to 9.40 | CCOC(=O)Cn1cc(-c2ccc(Nc3nccc(Nc4ccnc(-c5cccc(C)n5)n4)n3)cc2)cn1 [Compound 47, ethyl 2-[4-[4-[[4-[[2-(6-methyl-2-pyridyl)pyrimidin-4-yl]amino]pyrimidin-2-yl]amino]phenyl]pyrazol-1-yl]acetate] | 25.1 to 158 nM
9.50 to 10.40 | Cc1cccc(-c2nccc(Nc3ccnc(Nc4cccc(NC(=O)C5CCNC5)c4)n3)n2)n1 (stereo not shown) [Compound 227, N-[3-[[4-[[2-(6-methyl-2-pyridyl)pyrimidin-4-yl]amino]pyrimidin-2-yl]amino]phenyl]pyrrolidine-3-carboxamide] | ≤ 20 nM
9.50 to 10.40 | COC(=O)[C@H]1CN(Cc2ccc(Nc3nccc(Nc4ccnc(-c5cccc(C)n5)n4)n3)cc2)CCN1 [Compound 268, methyl (2R)-4-[[4-[[4-[[2-(6-methyl-2-pyridyl)pyrimidin-4-yl]amino]pyrimidin-2-yl]amino]phenyl]methyl] piperazine-2-carboxylate] | ≤ 20 nM
9.50 to 10.40 | Cc1cccc(-c2nccc(Nc3ccnc(Nc4ccc(C(=O)N5CCN(C(C)C)CC5)cc4)n3)n2)n1 [Compound 317, (4-isopropylpiperazin-1-yl)-[4-[[4-[[2-(6-methyl-2-pyridyl)pyrimidin-4-yl]amino]pyrimidin-2-yl]amino]phenyl]methanone] | 25.1 to 158 nM
8.50 to 9.40 | Cc1cccc(-c2nccc(Nc3ccnc(Nc4ccc(N5CCN(C)CC5)cn4)n3)n2)n1 [Compound 267, N2-[5-(4-methylpiperazin-1-yl)-2-pyridyl]-N4-[2-(6-methyl-2-pyridyl)pyrimidin-4-yl]pyrimidine-2,4-diamine] | 25.1 to 158 nM
9.50 to 10.40 | Cc1cccc(-c2nccc(Nc3ccnc(Nc4ccc(CCN(C)C)cc4)n3)n2)n1 [Compound 253, N2-[4-[2-(dimethylamino)ethyl]phenyl]-N4-[2-(6-methyl-2-pyridyl)pyrimidin-4-yl]pyrimidine-2,4-diamine] | 25.1 to 158 nM
8.50 to 9.40 | CC(=O)N1CC(CNc2ccc(Nc3nccc(Nc4ccnc(-c5cccc(C)n5)n4)n3)cc2)C1 [Compound 3, 1-[3-[[4-[[4-[[2-(6-methyl-2-pyridyl)pyrimidin-4-yl]amino]pyrimidin-2-yl]amino]anilino]methyl]azetidin-1-yl]ethanone] | 25.1 to 158 nM
8.50 to 9.40 | Cc1ccc(Nc2nccc(Nc3ccnc(-c4cccc(C)n4)n3)n2)cc1 [Compound 170, N4-[2-(6-methyl-2-pyridyl)pyrimidin-4-yl]-N2-(p-tolyl)pyrimidine-2,4-diamine] | 25.1 to 158 nM
≥ 10.50 | Cc1cccc(-c2nccc(Nc3ccnc(Nc4ccc(N5CCCC(C(=O)O[C@H]6CCNC6)C5)cc4)n3)n2)n1 (stereo partly drawn) [Compound 144, [(3S)-pyrrolidin-3-yl] 1-[4-[[4-[[2-(6-methyl-2-pyridyl)pyrimidin-4-yl]amino]pyrimidin-2-yl]amino]phenyl]piperidine-3-carboxylate] | 25.1 to 158 nM
9.50 to 10.40 | Cc1cccc(-c2nccc(Nc3ccnc(Nc4ccc(CN5CCCC(C(=O)O[C@H]6CCNC6)C5)cc4)n3)n2)n1 (mixture of isomers) [Compound 212, [rac-(3S)-pyrrolidin-3-yl] 1-[[4-[[4-[[2-(6-methyl-2-pyridyl)pyrimidin-4-yl]amino]pyrimidin-2-yl]amino]phenyl]methyl] piperidine-3-carboxylate] | 25.1 to 158 nM
9.50 to 10.40 | Cc1cccc(-c2nccc(Nc3ccnc(Nc4ccc(S(=O)(=O)N5CCN(CCO)CC5)cc4)n3)n2)n1 [Compound 541, 2-[4-[4-[[4-[[2-(6-methyl-2-pyridyl)pyrimidin-4-yl]amino]pyrimidin-2-yl]amino]phenyl]sulfonylpiperazin-1-yl]ethanol] | 25.1 to 158 nM
9.50 to 10.40 | Cc1cccc(-c2nccc(Nc3ccnc(Nc4ccc(CC5CNC5)cc4)n3)n2)n1 [Compound 280, N2-[4-(azetidin-3-ylmethyl)phenyl]-N4-[2-(6-methyl-2-pyridyl)pyrimidin-4-yl]pyrimidine-2,4-diamine] | 25.1 to 158 nM
9.50 to 10.40 | Cc1cccc(-c2nccc(Nc3ccnc(Nc4ccc(C(=O)OC[C@H]5CCCCN5)nc4)n3)n2)n1 [Compound 628, [(2R)-2-piperidyl]methyl 5-[[4-[[2-(6-methyl-2-pyridyl)pyrimidin-4-yl]amino]pyrimidin-2-yl]amino]pyridine-2-carboxylate] | 25.1 to 158 nM
9.50 to 10.40 | Cc1cccc(-c2nccc(Nc3ccnc(Nc4ccc(NC(=O)C5CNC5)cc4)n3)n2)n1 [Compound 76, N-[4-[[4-[[2-(6-methyl-2-pyridyl)pyrimidin-4-yl]amino]pyrimidin-2-yl]amino]phenyl]azetidine-3-carboxamide] | ≤ 20 nM
9.50 to 10.40 | Cc1cccc(-c2nccc(Nc3ccnc(Nc4cccc(NC(=O)N5CCN(C(C)C)CC5)c4)n3)n2)n1 [Compound 531, 4-isopropyl-N-[3-[[4-[[2-(6-methyl-2-pyridyl)pyrimidin-4-yl]amino]pyrimidin-2-yl]amino]phenyl]piperazine-1-carboxamide] | 25.1 to 158 nM
8.50 to 9.40 | Cc1cccc(-c2nccc(Nc3ccnc(Nc4cnc(N5CCNCC5)nc4)n3)n2)n1 [Compound 86, N4-(2-(6-methylpyridin-2-yl)pyrimidin-4-yl)-N2-(2-(piperazin-1-yl)pyrimidin-5-yl)pyrimidine-2,4-diamine] | 200 to 1260 nM
8.50 to 9.40 | CNC1CCN(c2ccc(Nc3nccc(Nc4ccnc(-c5ccccc5F)n4)n3)cc2)CC1 [Compound 90, N4-[2-(2-fluorophenyl)pyrimidin-4-yl]-N2-[4-[4-(methylamino)-1-piperidyl]phenyl]pyrimidine-2,4-diamine] | 25.1 to 158 nM
9.50 to 10.40 | Cc1cccc(-c2nccc(Nc3ccnc(Nc4ccc(CN5CC(C(=O)OC6CNC6)C5)cc4)n3)n2)n1 [Compound 167, azetidin-3-yl 1-[[4-[[4-[[2-(6-methyl-2-pyridyl)pyrimidin-4-yl]amino]pyrimidin-2-yl]amino]phenyl]methyl] azetidine-3-carboxylate] | 25.1 to 158 nM
9.50 to 10.40 | Cc1cccc(-c2nccc(Nc3ccnc(Nc4ccc(N(C)C(=O)C5CCNCC5)cc4)n3)n2)n1 [Compound 416, N-methyl-N-[4-[[4-[[2-(6-methyl-2-pyridyl)pyrimidin-4-yl]amino]pyrimidin-2-yl]amino]phenyl]piperidine-4-carboxamide] | 200 to 1260 nM
9.50 to 10.40 | Cc1cccc(-c2nccc(Nc3ccnc(Nc4csc(C(=O)NC5(CO)CCNC5)c4)n3)n2)n1 (stereo not shown) [Compound 40, N-[3-(hydroxymethyl)pyrrolidin-3-yl]-4-[[4-[[2-(6-methyl-2-pyridyl)pyrimidin-4-yl]amino]pyrimidin-2-yl]amino]thiophene-2-carboxamide] | 25.1 to 158 nM
8.50 to 9.40 | Cc1cccc(-c2nccc(Nc3ccnc(Nc4ccc(CC(=O)O)cc4)n3)n2)n1 [Compound 82, 2-[4-[[4-[[2-(6-methyl-2-pyridyl)pyrimidin-4-yl]amino]pyrimidin-2-yl]amino]phenyl]acetic acid] | 1580 to 10000 nM
9.50 to 10.40 | Cc1cccc(-c2nccc(Nc3ccnc(Nc4ccc(NC(=O)C5CCN(CCN(C)C)CC5)cc4)n3)n2)n1 [Compound 269, 1-[2-(dimethylamino)ethyl]-N-[4-[[4-[[2-(6-methyl-2-pyridyl)pyrimidin-4-yl]amino]pyrimidin-2-yl]amino]phenyl]piperidine-4-carboxamide] | 200 to 1260 nM
8.50 to 9.40 | Cc1cccc(-c2nccc(Nc3ccnc(Nc4ccc(C(=O)OCCN5C[C@@H](C)N[C@@H](C)C5)nc4)n3)n2)n1 [Compound 589, 2-[(3R,5S)-3,5-dimethylpiperazin-1-yl]ethyl 5-[[4-[[2-(6-methyl-2-pyridyl)pyrimidin-4-yl]amino]pyrimidin-2-yl]amino]pyridine-2-carboxylate] | 25.1 to 158 nM
9.50 to 10.40 | Cc1cccc(-c2nccc(Nc3ccnc(Nc4cccc(NC(=O)C5CCN(C6CCN(C)CC6)CC5)c4)n3)n2)n1 [Compound 282, 1-(1-methyl-4-piperidyl)-N-[3-[[4-[[2-(6-methyl-2-pyridyl)pyrimidin-4-yl]amino]pyrimidin-2-yl]amino]phenyl]piperidine-4-carboxamide] | 25.1 to 158 nM

Compound | pKi [1] | IC50 [2]
Cc1cccc(-c2nccc(Nc3ccnc(Nc4nc(C5=CCNCC5)cs4)n3)n2)n1 [Compound 571, N4-[2-(6-methyl-2-pyridyl)pyrimidin-4-yl]-N2-[4-(1,2,3,6-tetrahydropyridin-4-yl)thiazol-2-yl]pyrimidine-2,4-diamine] | 9.50 to 10.40 | ≤ 20 nM
